Eleven molecules from paper PMC9807592, “New thioxothiazolidinyl-acetamides derivatives as potent urease inhibitors: design, synthesis, in vitro inhibition, and molecular dynamic simulation” (Scientific Reports, 2023) can be followed below.

In one series the target is urease (Canavalia ensiformis, UniProt P07374). Kind of series: biochemical. It counts as biochemical. The procedure:
The assay was performed exactly according to our previous report. Briefly, 850 μL of urea and 15 μL urease (0.135 units dissolved in PBS, pH 7.4) were added to 100 μL of the synthesized derivatives at different concentrations. After 30 min, to 100 μL of the incubated solution, 500 μL solution I (5.0 g phenol and 25.0 mg sodium nitroprusside in 500 mL water) was added followed by the addition of 500 μL of solution II (2.5 g sodium hydroxide, 4.2 mL sodium hypochlorite, and 5% chlorine in 500 mL water) which was further incubated at 37 °C for 30 min. The absorbance was determined by measuring indophenols at 625 nm. Thiourea was used as the standard inhibitor for urease. The IC50 values for all synthesized compounds were calculated using GraphPad Prism software (GraphPad Software, Inc., San Diego, CA)[20].

The subject of another series is E. coli ATCC 25922. Kind of series: Antimicrobial activity, broth microdilution (CLSI). It counts as cell-based. The note with it: Escherichia coli, ATCC25922, read-out: MIC. How it is done:
(§1) Then, 100 μL of each dilution was transferred into the well of a microtiter plate and inoculated with 100 μL of cell suspension with a final density of 1–5 × 10^3 CFU/ml for yeasts and 1–1.5 × 10^6 cells/ml for bacteria. Plates were incubated at proper temperature overnight, and the minimum inhibitory concentration (MIC) of compounds was determined as the lowest concentration that prevented visible growth of tested microorganisms compared with the growth in the control wells (wells without tested compounds). […] All experiments were performed in duplicate[30],[31].
In general terms: In broth dilution the organism is exposed to a series of concentrations in liquid medium.

The subject of the next series is S. aureus ATCC 25923. Kind of series: Antimicrobial activity, broth microdilution (CLSI). The class given is cell-based. The note with it: Staphylococcus aureus, ATCC25923. How it is done:
as §1

The subject of series [1] is clinical isolate of P. vulgaris. Briefly: Antimicrobial activity, broth microdilution (CLSI). It counts as cell-based. The note with it: Proteus vulgaris. How it is done: as §1
The next series deals with C. albicans ATCC 10261. Briefly: Antimicrobial activity, broth microdilution (CLSI). The note with it: Candida albicans, ATCC10261. It counts as cell-based. How it is done: The antimicrobial activity of designed compounds was investigated using broth microdilution.
Briefly, twofold serial dilutions of the compounds were prepared in Mueller–Hinton Broth (MHB, HiMedia) for bacterial strains and RPMI-1640 (Sigma-Aldrich) for yeast strain (Ranging 1–512 µg/ml). Then, 100 μL of each dilution was transferred into the well of a microtiter plate and inoculated with 100 μL of cell suspension with a final density of 1–5 × 10^3 CFU/ml for yeasts and 1–1.5 × 10^6 cells/ml for bacteria. Plates were incubated at proper temperature overnight, and the minimum inhibitory concentration (MIC) of compounds was determined as the lowest concentration that prevented visible growth of tested microorganisms compared with the growth in the control wells (wells without tested compounds). Moreover, the minimum bactericidal/fungicidal concentration (MBC/MFC) of compounds was determined by transferring the 10 µl of clear wells into the agar media. Standard antibacterial and antifungal agents (Ciprofloxacin and Fluconazole) were evaluated. All experiments were performed in duplicate[30],[31].

A short description of series [2]: In vitro cytotoxic evaluation (MTT assay). The class given is cell-based. The note with it: human, MOLT-4 cells. The procedure:
MOLT-4 (human acute lymphoblastic leukemia) cells were cultures in RPMI-1640 medium supplemented with 10% heat-inactivated fetal bovine serum. Cell viability was measured by the MTT assay. MOLT-4 cells were seeded into 96-well micro-culture plates. After 24 h, the culture medium was replaced with a medium containing different concentrations of newly synthesized derivatives. Control wells were supplemented with the same volume of growth medium not containing any drugs. Cells were then incubated at 37 °C for 72 h. At the end of the exposure time, the medium was removed and MTT solution of 0.5 mg/ml was added to each well. The plates were incubated at 37 °C for 4 h, after which DMSO was added to each well to solubilize the formed formazan crystals, and the absorbance of each well was read with a microplate reader at 570 nm.

[3] abbreviates: mean ± SEM, at least three experiments, read-out: IC50 (μM), urease inhibitory activity.

≈ marks a conversion by molar mass, not a printed value. Where two headings read alike, the source gives them in different places.

For orientation: IC50 means the point on the concentration scale where inhibition reaches its midpoint. For orientation: MIC means the lowest concentration found to suppress growth. By viability is commonly meant a per cent measure of how many cells are alive, often set against a control. A higher viability goes with better survival. One may read the melting point as the temperature of the solid-liquid transition.

urease, sequence (P07374 whole entry, looked up): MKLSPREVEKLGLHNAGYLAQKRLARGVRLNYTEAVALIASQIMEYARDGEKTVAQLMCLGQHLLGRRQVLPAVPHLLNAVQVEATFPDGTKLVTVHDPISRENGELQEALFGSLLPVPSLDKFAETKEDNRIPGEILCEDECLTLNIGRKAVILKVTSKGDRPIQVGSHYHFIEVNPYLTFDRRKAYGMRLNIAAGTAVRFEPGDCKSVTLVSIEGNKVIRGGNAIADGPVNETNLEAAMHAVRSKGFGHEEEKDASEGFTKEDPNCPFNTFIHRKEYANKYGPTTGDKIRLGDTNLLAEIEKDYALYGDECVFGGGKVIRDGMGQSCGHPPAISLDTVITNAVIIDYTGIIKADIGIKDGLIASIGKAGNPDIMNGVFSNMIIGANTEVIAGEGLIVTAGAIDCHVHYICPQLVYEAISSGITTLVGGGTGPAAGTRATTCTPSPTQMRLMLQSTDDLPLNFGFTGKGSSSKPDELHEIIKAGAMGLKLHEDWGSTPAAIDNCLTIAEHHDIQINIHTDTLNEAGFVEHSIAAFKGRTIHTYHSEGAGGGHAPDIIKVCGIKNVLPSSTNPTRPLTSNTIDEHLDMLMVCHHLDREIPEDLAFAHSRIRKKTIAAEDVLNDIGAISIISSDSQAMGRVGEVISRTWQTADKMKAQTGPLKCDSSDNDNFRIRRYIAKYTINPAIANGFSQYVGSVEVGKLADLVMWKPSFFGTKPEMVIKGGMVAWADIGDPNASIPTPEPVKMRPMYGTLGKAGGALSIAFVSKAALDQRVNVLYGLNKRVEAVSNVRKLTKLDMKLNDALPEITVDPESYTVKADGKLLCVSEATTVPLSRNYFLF

For the molecule `O=C(CC1SC(=S)N(Cc2ccccc2)C1=O)NCc1ccccc1` (centres unmarked) [Compound 6a, N-benzyl-2-(3-benzyl-4-oxo-2-thioxothiazolidin-5-yl)acetamide], the melting point was in the range of 168 to 170 °C. Moreover, the IC50 on urease was found to be 2.22 ± 0.36 µM. For the same molecule, in the series on E. coli ATCC 25922, the MIC is > 512 µg/mL. In addition, the MIC in the series with S. aureus ATCC 25923 is > 512 µg/mL. The MIC in series [1] was > 512 µg/mL. The MIC in the series with C. albicans ATCC 10261 was > 512 µg/mL. Moreover, the viability at 72 h, 100 µM in series [2] worked out at 95.5 ± 2.7%.
The molecule `Cc1ccc(CNC(=O)CC2SC(=S)N(Cc3ccccc3)C2=O)cc1` (centres unmarked) [Compound 6b, 2-(3-benzyl-4-oxo-2-thioxothiazolidin-5-yl)-N-(4-methylbenzyl)acetamide] yielded a melting point of 167 to 169 °C. For the same molecule, half-maximal inhibition against urease (IC50) was put at 4.02 ± 1.12 µM. The MIC in the series with E. coli ATCC 25922 is > 512 µg/mL. Moreover, the MIC against S. aureus ATCC 25923 is > 512 µg/mL. In addition, the MIC in series [1] was > 512 µg/mL. Further, in the series with C. albicans ATCC 10261, the MIC was > 512 µg/mL. This molecule registered a viability at 72 h, 100 µM in series [2] of 91.2 ± 4.2%.
In turn, `O=C(CC1SC(=S)N(Cc2ccccc2)C1=O)NCc1ccc(F)cc1` (centres unmarked) [Compound 6c, 2-(3-benzyl-4-oxo-2-thioxothiazolidin-5-yl)-N-(4-fluorobenzyl)acetamide] yielded a melting point of 169 to 171 °C. The same molecule came in with an IC50 against urease of 2.15 ± 0.18 µM. In the series with E. coli ATCC 25922, the MIC is > 512 µg/mL. In addition, the MIC against S. aureus ATCC 25923 was > 512 µg/mL. The MIC in series [1] was > 512 µg/mL. Besides, the MIC in the series on C. albicans ATCC 10261 is > 512 µg/mL. In series [2], the viability at 72 h, 100 µM was 92.7 ± 3.6%.
Molecule `CCCCN1C(=O)C(CC(=O)NCc2ccc(C)cc2)SC1=S` (centres unmarked) [Compound 6j, 2-(3-butyl-4-oxo-2-thioxothiazolidin-5-yl)-N-(4-methylbenzyl)acetamide] returned a melting point of 174 to 176 °C. Moreover, the IC50 against urease turned out to be 5.66 ± 0.79 µM. This molecule had a viability at 72 h, 100 µM in series [2] of 97.7 ± 4.6%.
`CCCCN1C(=O)C(CC(=O)NCC(C)C)SC1=S` (centres unmarked) [Compound 6k, 2-(3-butyl-4-oxo-2-thioxothiazolidin-5-yl)-N-isobutylacetamide] came in with a melting point of 170 to 172 °C. Moreover, the IC50 against urease came out at 1.91 ± 0.57 µM. Besides, the MIC with E. coli ATCC 25922 was > 512 µg/mL. For the same molecule, the MIC with S. aureus ATCC 25923 was > 512 µg/mL. In series [1], the minimal inhibitory concentration (MIC) is > 512 µg/mL. For the same molecule, the MIC in the series with C. albicans ATCC 10261 was > 512 µg/mL. The viability at 72 h, 100 µM in series [2] came to 98.5 ± 1.4%.
The molecule `CC(C)CN1C(=O)C(CC(=O)NCc2ccccc2)SC1=S` (centres unmarked) [Compound 6l, N-benzyl-2-(3-isobutyl-4-oxo-2-thioxothiazolidin-5-yl)acetamide] displayed a melting point of 169 to 171 °C. In addition, the IC50 on urease was determined as 4.38 ± 0.61 µM. For the same molecule, the MIC in the series with E. coli ATCC 25922 is > 512 µg/mL. Also, the minimum inhibitory concentration (MIC) against S. aureus ATCC 25923 is > 512 µg/mL. In addition, the MIC in series [1] was > 512 µg/mL. The MIC against C. albicans ATCC 10261 was > 512 µg/mL. Besides, the viability at 72 h, 100 µM in series [2] came out at 93.6 ± 4.5%.
The molecule `Cc1ccc(CNC(=O)CC2SC(=S)N(CC(C)C)C2=O)cc1` (centres unmarked) [Compound 6m, 2-(3-isobutyl-4-oxo-2-thioxothiazolidin-5-yl)-N-(4-methylbenzyl)acetamide] displayed a melting point of 173 to 175 °C. For the same molecule, at urease, 3.09 ± 1.08 µM corresponded to half-maximal inhibition (IC50). Also, the MIC in the series with E. coli ATCC 25922 is > 512 µg/mL. In the series on S. aureus ATCC 25923, the MIC is > 512 µg/mL. Further, the MIC in series [1] is > 512 µg/mL. In the series on C. albicans ATCC 10261, the MIC was > 512 µg/mL. The same molecule returned a viability at 72 h, 100 µM in series [2] of 97.7 ± 2.9%.
Take `COc1cccc2c1C(=O)c1c(O)c3c(c(O)c1C2=O)C[C@@](O)(C(=O)CO)C[C@@H]3O[C@H]1C[C@H](N)[C@H](O)[C@H](C)O1` [Doxorubicin, reference compound]: the IC50 at 72 h in series [2] (read-out: IC50 (µM), cytotoxicity) stood at 12.7 ± 2.4 µM.
`OC(Cn1cncn1)(Cn1cncn1)c1ccc(F)cc1F` [Fluconazole, reference compound] gave an MIC against C. albicans ATCC 10261 of 4 µg/mL (≈ 13.1 µM).
For `NC(=O)NO` [Hydroxyurea, reference compound], the IC50 was 100 µM at urease (mean ± SEM, at least three experiments, listed as hydroxyurea, read-out: IC50 (μM), urease inhibitory activity) and 100 ± 2.5 µM on urease (setting [3]).
`NC(N)=S` [Thiourea, reference compound]: at urease (setting [3]), the IC50 stood at 23.6 ± 0.84 µM.
